This is an account of results in US8772298B2, “Spirocyclic heterocycles medicaments containing said compounds, use thereof and method for their production” (Boehringer Ingelheim International GmbH, priority 2008, dated 2014).

T1 sequence (P00533 25-1210): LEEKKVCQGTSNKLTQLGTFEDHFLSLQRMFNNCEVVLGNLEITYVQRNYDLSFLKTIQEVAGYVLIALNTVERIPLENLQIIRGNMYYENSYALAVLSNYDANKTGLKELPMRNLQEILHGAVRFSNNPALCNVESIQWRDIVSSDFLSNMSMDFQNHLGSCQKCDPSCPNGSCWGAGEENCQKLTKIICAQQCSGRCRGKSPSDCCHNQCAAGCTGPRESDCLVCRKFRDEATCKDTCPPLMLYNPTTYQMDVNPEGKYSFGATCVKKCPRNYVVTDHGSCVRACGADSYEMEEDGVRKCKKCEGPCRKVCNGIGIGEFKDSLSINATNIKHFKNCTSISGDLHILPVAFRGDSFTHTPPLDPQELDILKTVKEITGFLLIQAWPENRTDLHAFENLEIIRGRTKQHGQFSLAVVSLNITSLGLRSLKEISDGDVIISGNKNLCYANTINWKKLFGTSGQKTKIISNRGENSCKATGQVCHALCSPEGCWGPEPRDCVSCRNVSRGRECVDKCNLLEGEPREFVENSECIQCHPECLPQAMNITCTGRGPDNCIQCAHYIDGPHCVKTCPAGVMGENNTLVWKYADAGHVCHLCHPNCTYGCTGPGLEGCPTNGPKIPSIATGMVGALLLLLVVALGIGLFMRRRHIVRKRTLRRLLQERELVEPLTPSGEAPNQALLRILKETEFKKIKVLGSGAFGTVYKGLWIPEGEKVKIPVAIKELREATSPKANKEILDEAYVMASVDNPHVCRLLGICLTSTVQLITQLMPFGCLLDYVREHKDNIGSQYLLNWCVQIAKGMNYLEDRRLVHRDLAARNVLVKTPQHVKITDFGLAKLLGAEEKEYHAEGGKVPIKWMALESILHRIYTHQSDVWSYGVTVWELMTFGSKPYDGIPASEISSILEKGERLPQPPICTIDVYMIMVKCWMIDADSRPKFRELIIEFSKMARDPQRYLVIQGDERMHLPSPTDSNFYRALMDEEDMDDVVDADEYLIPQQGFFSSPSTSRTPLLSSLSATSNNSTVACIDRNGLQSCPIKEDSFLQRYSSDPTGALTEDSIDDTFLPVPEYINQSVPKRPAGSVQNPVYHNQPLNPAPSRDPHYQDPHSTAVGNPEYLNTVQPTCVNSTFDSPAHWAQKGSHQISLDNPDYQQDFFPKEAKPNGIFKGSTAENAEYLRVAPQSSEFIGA

The experiment has as its target T1, human EGF-R (Homo sapiens, UniProt P00533).
T1 construct: expressed in transfected cells
The experiment in a line: Inhibition of EGFR-dependent proliferation (EGF-stimulated murine haematopoietic cell line expressing human EGF-R). In kind it is cell-based. The settings on record: 20 ng/ml human EGF, 48 hours at 37° C., Cell Titer 96 AQueous assay. The procedure:
A murine haematopoietic cell line is genetically modified so as to express functional human EGF-R. The proliferation of this cell line can therefore be stimulated by EGF.
The test is carried out as follows:
The cells are cultivated in RPMI/1640 medium. The proliferation is stimulated with 20 ng/ml of human EGF (Promega). To investigate the inhibitory activity of the compounds according to the invention these compounds are dissolved in 100% dimethylsulphoxide (DMSO) and added to the cultures in various dilutions, the maximum DMSO concentration being 1%. The cultures are incubated for 48 hours at 37° C.
In order to determine the inhibitory activity of the compounds according to the invention the relative cell number is measured in O.D. Units using the Cell Titer 96™ AQueous Non-Radioactive Cell Proliferation Assay (Promega). The relative cell number is calculated as a percentage of the control and the concentration of active substance which inhibits the proliferation of the cells by 50% (IC50) is derived therefrom.
`COc1cc2ncnc(Nc3cccc(Cl)c3F)c2cc1O[C@H]1CC[C@]2(CC1)NCCNC2=O` [1(2), syn-9-[4-(3-chloro-2-fluoro-phenylamino)-7-methoxy-quinazolin-6-yloxy]-1,4-diaza-spiro[5.5]undecan-5-one] gave a half-inhibitory concentration (IC50) of 2 nM.
The compound `COc1cc2ncnc(Nc3cccc(Cl)c3F)c2cc1O[C@H]1CC[C@]2(CC1)C(=O)N(C)CCN2C` [2(1), anti-9-[4-(3-chloro-2-fluoro-phenylamino)-7-methoxy-quinazolin-6-yloxy]-1,4-dimethyl-1,4-diaza-spiro[5.5]undecan-5-one] had an IC50 of 2 nM.
The value for `COc1cc2ncnc(Nc3cccc(Cl)c3F)c2cc1O[C@H]1CC[C@@]2(CC1)NCCNC2=O` [Example 1, anti-9-[4-(3-chloro-2-fluoro-phenylamino)-7-methoxy-quinazolin-6-yloxy]-1,4-diaza-spiro[5.5]undecan-5-one] was 4 nM; that for `COc1cc2ncnc(Nc3cccc(Cl)c3F)c2cc1O[C@H]1CC[C@]2(CC1)C(=O)NCCN2C` [Example 2, anti-9-[4-(3-chloro-2-fluoro-phenylamino)-7-methoxy-quinazolin-6-yloxy]-1-methyl-1,4-diaza-spiro[5.5]undecan-5-one] was 1 nM.
The value for `COc1cc2ncnc(Nc3cccc(Cl)c3F)c2cc1O[C@H]1CC[C@@]2(CC1)NCCN(C)C2=O` [1(1), anti-9-[4-(3-chloro-2-fluoro-phenylamino)-7-methoxy-quinazolin-6-yloxy]-4-methyl-1,4-diaza-spiro[5.5]undecan-5-one] was 2 nM.
